Reference: ChEMBL document CHEMBL3045358, “Synthesis of kojic acid-derived copper-chelating apoptosis inducing agents” (2013)
Activity calls are given as the source filed them. The calls are words filed in the database; no cut-off is given here.

Experiments:
HeLa [1] = assay: Antiproliferative activity against Homo sapiens (human) HeLa cells assessed as growth inhibition at 25 uM after 48 hr by MTT assay in presence of 50 uM CuCl2; type: functional
HeLa [2] = assay: Antiproliferative activity against Homo sapiens (human) HeLa cells assessed as growth inhibition after 48 hr by MTT assay in presence of 50 uM CuCl2; type: functional
HeLa [3] = assay: Antiproliferative activity against Homo sapiens (human) HeLa cells assessed as growth inhibition at 25 uM after 48 hr by MTT assay; type: functional, cell-based
HeLa [4] = assay: Antiproliferative activity against Homo sapiens (human) HeLa cells assessed as growth inhibition after 48 hr by MTT assay; type: functional
HeLa [5] = assay: Induction of apoptosis in Homo sapiens (human) HeLa cells assessed as decrease in 32 kDa procaspase-3 level at 15 uM after 24 hr by Western blot analysis in presence of 50 uM CuCl2; type: functional, cell-based
[6] = biological target: MAP kinase p38 (Homo sapiens) (UniProt O15264+Q15759+Q16539+P53778); assay: Increase in p38 MAPK phosphorylation in Homo sapiens (human) HeLa cells at 15 uM after 24 hr by Western blot analysis in presence of 50 uM CuCl2; type: cell-based
HeLa [7] = assay: Antiproliferative activity against Homo sapiens (human) HeLa cells assessed as growth inhibition at 75 uM after 48 hr by MTT assay; type: functional; conditions: read-out: GI
HeLa [8] = assay: Induction of cell cycle arrest in Homo sapiens (human) HeLa cells assessed as accumulation of cells at sub-G1 phase at 5 uM after 24 hr by propidium iodide staining based flow cytometry (reference value: 3.41%); type: functional
HeLa [9] = assay: Induction of cell cycle arrest in Homo sapiens (human) HeLa cells assessed as accumulation of cells at sub-G1 phase at 5 uM after 24 hr by propidium iodide staining based flow cytometry in presence of 50 uM CuCl2 (reference value: 3.22%); type: functional
HeLa [10] = assay: Induction of cell cycle arrest in Homo sapiens (human) HeLa cells assessed as accumulation of cells at sub-G1 phase at 15 uM after 24 hr by propidium iodide staining based flow cytometry (reference value: 3.41%); type: functional
HeLa [11] = assay: Induction of apoptosis in Homo sapiens (human) HeLa cells assessed as PARP cleavage at 15 uM after 24 hr by Western blot analysis in presence of 50 uM CuCl2; type: functional, cell-based
HeLa [12] = assay: Increase in ERK phosphorylation in Homo sapiens (human) HeLa cells at 15 uM after 24 hr by Western blot analysis in presence of 50 uM CuCl2; type: cell-based
HeLa [13] = assay: Induction of cell cycle arrest in Homo sapiens (human) HeLa cells assessed as accumulation of cells at sub-G1 phase at 15 uM after 24 hr by propidium iodide staining based flow cytometry in presence of 50 uM CuCl2 (reference value: 3.22%); type: functional
HeLa [14] = assay: Induction of cell cycle arrest in Homo sapiens (human) HeLa cells assessed as accumulation of cells at sub-G1 phase at 25 uM after 24 hr by propidium iodide staining based flow cytometry (reference value: 3.41%); type: functional
HeLa [15] = assay: Induction of cell cycle arrest in Homo sapiens (human) HeLa cells assessed as accumulation of cells at sub-G1 phase at 25 uM after 24 hr by propidium iodide staining based flow cytometry in presence of 50 uM CuCl2 (reference value: 3.22%); type: functional

COc1ccc(COc2coc(/C=C/c3ccccc3)cc2=O)cc1
growth inhibition (GI) (HeLa [1]): inactive

O=c1cc(CN2CCN(S(=O)(=O)c3ccccc3)CC2)occ1O
growth inhibition (GI) (HeLa [1]): 35%

O=c1cc(/C=C/c2ccccc2)occ1O
GI50 (HeLa [2]): 11.9 µM | growth inhibition (GI) (HeLa [3]): inactive | GI50 (HeLa [4]): 64.5 µM | growth inhibition (GI) (HeLa [1]): 90%

O=c1cc(COc2cccc3cccnc23)occ1O
Activity (HeLa [5]): Active | Activity [6]: Active | inhibition of growth at 75 µM (HeLa [7]): 15.2% | GI50 (HeLa [2]): 7.1 µM | Activity (HeLa [8]): 5.09% | growth inhibition (GI) (HeLa [3]): inactive | Activity (HeLa [9]): 11.58% | Activity (HeLa [10]): 5.85% | growth inhibition (GI) (HeLa [1]): 95% | Activity (HeLa [11]): Active | Activity (HeLa [12]): Active | Activity (HeLa [13]): 48.56%

O=c1cc(/C=C/c2ccc(O)c(O)c2)occ1O
growth inhibition (GI) (HeLa [3]): inactive | growth inhibition (GI) (HeLa [1]): inactive

O=c1cc(CO)occ1O [KOJIC ACID]
Activity (HeLa [14]): 2.16% | growth inhibition (GI) (HeLa [3]): inactive | Activity (HeLa [15]): 3.57% | growth inhibition (GI) (HeLa [1]): inactive

O=c1cc(COc2cccc(O)c2)occ1O
growth inhibition (GI) (HeLa [3]): inactive | growth inhibition (GI) (HeLa [1]): inactive
